Measurements published in the NIST ThermoML archive (doi:10.1016/j.fluid.2005.10.023).

Assay: xn = mol fraction of the nth substance listed
Conditions: Gas, Other PVT measurement

CCCCCl [1-chlorobutane] + O=C=O
mass density [kg/m3]
Conditions | x1 = 0.0257 | x1 = 0.03 | x1 = 0.0363 | x1 = 0.04 | x1 = 0.0497
323.15 K | 347 | 386 | 442 | 468 | –
328.15 K | 300 | 343 | 390 | 407 | 467
333.15 K | – | 286 | 345 | 380 | 419

Clc1ccccc1 [chlorobenzene] + O=C=O
mass density [kg/m3]
Conditions | x1 = 0.024 | x1 = 0.0293 | x1 = 0.0352 | x1 = 0.04 | x1 = 0.0482 | x1 = 0.204
323.15 K | 471 | 507 | – | – | – | 437
328.15 K | 441 | 481 | 516 | 534 | – | 406
333.15 K | 417 | 458 | 493 | 516 | 556 | 386

CCCCCC [hexane] + O=C=O
mass density [kg/m3]
Conditions | x1 = 0.0373 | x1 = 0.0471 | x1 = 0.052 | x1 = 0.0618
323.15 K | 355 | 451 | 477 | –
328.15 K | 294 | 396 | 423 | 436
333.15 K | 249 | 343 | 378 | 392

C=Cc1ccccc1 [styrene] + O=C=O
mass density [kg/m3]
Conditions | x1 = 0.0182 | x1 = 0.0256 | x1 = 0.03 | x1 = 0.0343 | x1 = 0.0393 | x1 = 0.0476
323.15 K | 479 | 494 | 521 | – | – | –
328.15 K | 450 | 471 | 499 | 529 | 547 | 580
333.15 K | 430 | 453 | 479 | 507 | 527 | 560
